Reference: ChEMBL document CHEMBL3351906, “Bioactive triterpenoid saponins and phenolic compounds against glioma cells” (Bioorg Med Chem Lett, 2014)
Each block holds one molecule with its values, some of them ahead of it. The source made the active and inactive calls. No cut-off for these calls is given here.

Experiments:
U-251 [1] = experiment: Inhibition of cell proliferation of human U251 cells assessed as cell viability at 100 uM after 72 hrs by sulforhodamine B assay; assay type: functional; settings: U-251, 72 h, read-out: Activity
C6 [2] = experiment: Inhibition of cell proliferation of rat C6 cells assessed as cell viability after 72 hrs by sulforhodamine B assay; assay type: functional, cell-based; settings: for IC50: C6, 72 h
U-251 [3] = experiment: Inhibition of cell proliferation of human U251 cells assessed as cell viability after 72 hrs by sulforhodamine B assay; assay type: functional, cell-based; settings: for IC50: U-251, 72 h
U-87MG ATCC = experiment: Inhibition of cell proliferation of human U87MG cells assessed as cell viability after 72 hrs by sulforhodamine B assay; assay type: functional, cell-based
C6 [4] = experiment: Inhibition of cell proliferation of rat C6 cells assessed as cell viability at 100 uM after 72 hrs by sulforhodamine B assay; assay type: functional; settings: C6, 72 h, read-out: Activity

Compound: CC1(C)CC[C@]2(C(=O)O)CC[C@]3(C)C(=CC[C@@H]4[C@@]5(C)CC[C@H](O[C@@H]6O[C@H](CO[C@@H]7OC[C@H](O)[C@H](O)[C@H]7O[C@@H]7OC[C@@H](O)[C@H](O)[C@H]7O)[C@@H](O)[C@H](O)[C@H]6O)C(C)(C)[C@@H]5CC[C@]43C)[C@@H]2C1 [PITHEDULOSIDE C]
viability at 100 µM (U-251 [1]): 104%
inhibition (U-87MG ATCC): inactive
inhibition (C6 [2]): inactive
inhibition (U-251 [3]): inactive
viability at 100 µM (C6 [4]): 63%

Compound: CC1(C)CC[C@]2(C(=O)O)[C@H](O)C[C@]3(C)C(=CC[C@@H]4[C@@]5(C)CC[C@H](O[C@@H]6O[C@H](CO[C@@H]7OC[C@H](O)[C@H](O)[C@H]7O[C@@H]7OC[C@@H](O)[C@H](O)[C@H]7O)[C@@H](O)[C@H](O)[C@H]6O)C(C)(C)[C@@H]5CC[C@]43C)[C@@H]2C1
viability at 100 µM (U-251 [1]): 88.8%
inhibition (U-87MG ATCC): inactive
inhibition (C6 [2]): inactive
inhibition (U-251 [3]): inactive
viability at 100 µM (C6 [4]): 86.2%

Compound: O=c1c(O)c(-c2ccc(O)c(O)c2)oc2cc(O)cc(O)c12 [QUERCETIN]
viability at 100 µM (U-251 [1]): 62.9%
IC50 (C6 [2]): 18.4 µM
IC50 (U-251 [3]): 77.8 µM

Compound: C[C@@H]1O[C@@H](OC[C@H]2O[C@@H](OC(=O)[C@]34CCC(C)(C)C[C@H]3C3=CC[C@@H]5[C@@]6(C)CC[C@H](O[C@@H]7O[C@H](CO[C@@H]8OC[C@H](O)[C@H](O)[C@H]8O[C@@H]8OC[C@@H](O)[C@H](O)[C@H]8O)[C@@H](O)[C@H](O)[C@H]7O)C(C)(C)[C@@H]6CC[C@@]5(C)[C@]3(C)CC4)[C@H](O[C@@H]3O[C@@H](C)[C@H](O[C@@H]4OC[C@@H](O)[C@H](O[C@@H]5OC[C@@H](O)[C@H](O)[C@H]5O)[C@H]4O)[C@@H](O)[C@H]3O)[C@@H](O)[C@@H]2O)[C@H](O)[C@H](O)[C@H]1O
viability at 100 µM (U-251 [1]): 83.9%
inhibition (U-87MG ATCC): inactive
inhibition (C6 [2]): inactive
inhibition (U-251 [3]): inactive
viability at 100 µM (C6 [4]): 97.2%

Compound: C[C@@H]1O[C@@H](O[C@H]2[C@H](OC(=O)[C@]34CCC(C)(C)C[C@H]3C3=CC[C@@H]5[C@@]6(C)CC[C@H](O[C@@H]7O[C@H](CO[C@@H]8OC[C@H](O)[C@H](O)[C@H]8O[C@@H]8OC[C@@H](O)[C@H](O)[C@H]8O)[C@@H](O)[C@H](O)[C@H]7O)C(C)(C)[C@@H]6CC[C@@]5(C)[C@]3(C)C[C@H]4O)O[C@H](CO)[C@@H](O)[C@@H]2O)[C@H](O[C@@H]2OC[C@@H](O)[C@H](O)[C@H]2O)[C@H](O)[C@H]1O[C@@H]1OC[C@@H](O)[C@H](O[C@@H]2OC[C@@H](O)[C@H](O)[C@H]2O)[C@H]1O
viability at 100 µM (U-251 [1]): 93.6%
inhibition (U-87MG ATCC): inactive
inhibition (C6 [2]): inactive
inhibition (U-251 [3]): inactive
viability at 100 µM (C6 [4]): 81.6%

Compound: C/C=C(/C)C(=O)O[C@H]1[C@H](O)[C@]2(COC(C)=O)[C@H](O)C[C@]3(C)C(=CC[C@@H]4[C@@]5(C)CC[C@H](O[C@@H]6O[C@H](C(=O)O)[C@@H](O[C@@H]7O[C@H](CO)[C@@H](O)[C@H](O)[C@H]7O)[C@H](O)[C@H]6O[C@@H]6O[C@H](CO)[C@@H](O)[C@H](O)[C@H]6O)[C@](C)(CO)[C@@H]5CC[C@]43C)[C@@H]2CC1(C)C [ISOESCIN IB]
viability at 100 µM (U-251 [1]): 29.7%
IC50 (C6 [2]): 77.8 µM
IC50 (U-251 [3]): 68.9 µM

Compound: C/C=C(\C)C(=O)O[C@H]1[C@H](O)[C@]2(CO)[C@H](O)C[C@]3(C)C(=CC[C@@H]4[C@@]5(C)CC[C@H](O[C@@H]6O[C@H](C(=O)O)[C@@H](O[C@@H]7O[C@H](CO)[C@@H](O)[C@H](O)[C@H]7O)[C@H](O)[C@H]6O[C@@H]6O[C@H](CO)[C@@H](O)[C@H](O)[C@H]6O)[C@@](C)(CO)[C@@H]5CC[C@]43C)[C@@H]2CC1(C)C
viability at 100 µM (U-251 [1]): 92.7%
viability at 100 µM (C6 [4]): 89.6%

Compound: CC(C)=CC/C=C(/C)[C@H]1CC[C@]2(C)[C@@H]1[C@H](O)C[C@@H]1[C@@]3(C)CC[C@H](O)C(C)(C)[C@@H]3[C@@H](O)C[C@]12C
viability at 100 µM (U-251 [1]): 92.7%
viability at 100 µM (C6 [4]): 75.6%

Now from value to molecule, other results behind:

IC50 (U-251 [3]): 15.2 µM
Compound: C=CC(C)(O)CC/C=C(\CO)C(=O)O[C@H]1[C@H](O)[C@@H](COC(=O)/C(C)=C/CC[C@](C)(O)C=C)O[C@@H](OC(=O)[C@]23CCC(C)(C)C[C@H]2C2=CC[C@@H]4[C@@]5(C)CC[C@H](O[C@@H]6O[C@H](CO[C@@H]7OC[C@H](O)[C@H](O)[C@H]7O[C@@H]7OC[C@@H](O)[C@H](O)[C@H]7O)[C@@H](O)[C@H](O)[C@H]6O)C(C)(C)[C@@H]5CC[C@@]4(C)[C@]2(C)CC3)[C@@H]1O[C@@H]1O[C@@H](C)[C@H](O[C@@H]2OC[C@@H](O)[C@H](O[C@@H]3OC[C@@H](O)[C@H](O)[C@H]3O)[C@H]2O)[C@@H](O)[C@H]1O (stereo partly drawn)
viability at 100 µM (U-251 [1]): 9.84%
IC50 (C6 [2]): 13.6 µM

IC50 (U-251 [3]): 48.4 µM
Compound: C/C=C(\C)C(=O)O[C@H]1[C@H](O)[C@]2(COC(C)=O)[C@H](O)C[C@]3(C)C(=CC[C@@H]4[C@@]5(C)CC[C@H](O[C@@H]6O[C@H](C(=O)OC)[C@@H](O[C@@H]7O[C@H](CO)[C@@H](O)[C@H](O)[C@H]7O)[C@H](O)[C@H]6O[C@@H]6O[C@H](CO)[C@@H](O)[C@H](O)[C@H]6O)[C@](C)(CO)[C@@H]5CC[C@]43C)[C@@H]2CC1(C)C
viability at 100 µM (U-251 [1]): 26.2%
IC50 (C6 [2]): 60.7 µM

IC50 (U-251 [3]): 26.8 µM
Compound: CC(=O)Oc1cc(CCOC(=O)CCc2ccc(O)c(OC(C)=O)c2)ccc1O
viability at 100 µM (U-251 [1]): 39.8%
IC50 (C6 [2]): 8.47 µM

IC50 (U-251 [3]): 80.4 µM
Compound: C/C=C(\C)C(=O)O[C@H]1[C@H](O)[C@]2(COC(C)=O)[C@H](O)C[C@]3(C)C(=CC[C@@H]4[C@@]5(C)CC[C@H](O[C@@H]6O[C@H](C(=O)O)[C@@H](O[C@@H]7O[C@H](CO)[C@@H](O)[C@H](O)[C@H]7O)[C@H](O)[C@H]6O[C@@H]6O[C@H](CO)[C@@H](O)[C@H](O)[C@H]6O)[C@](C)(CO)[C@@H]5CC[C@]43C)[C@@H]2CC1(C)C [ISOESCIN IA]
viability at 100 µM (U-251 [1]): 61.1%
IC50 (C6 [2]): 54.5 µM

IC50 (U-251 [3]): 19.2 µM
Compound: C=C[C@@](C)(O)CC/C=C(\CO)C(=O)OC[C@H]1O[C@@H](OC(=O)[C@]23CCC(C)(C)C[C@H]2C2=CC[C@@H]4[C@@]5(C)CC[C@H](O[C@@H]6O[C@H](CO[C@@H]7OC[C@H](O)[C@H](O)[C@H]7O[C@@H]7OC[C@@H](O)[C@H](O)[C@H]7O)[C@@H](O)[C@H](O)[C@H]6O)C(C)(C)[C@@H]5CC[C@@]4(C)[C@]2(C)C[C@H]3O)[C@H](O[C@@H]2O[C@@H](C)[C@H](O[C@@H]3OC[C@@H](O)[C@H](O[C@@H]4OC[C@@H](O)[C@H](O)[C@H]4O)[C@H]3O)[C@@H](O)[C@H]2O[C@@H]2O[C@H](CO)[C@H](O)[C@H](O)[C@H]2O)[C@@H](O)[C@@H]1O
viability at 100 µM (U-251 [1]): 28.6%
IC50 (C6 [2]): 18.1 µM

IC50 (U-251 [3]): 37.2 µM
Compound: CC(=O)Oc1ccc(CCOC(=O)CCc2ccc(OC(C)=O)c(OC(C)=O)c2)cc1OC(C)=O
viability at 100 µM (U-251 [1]): 43.5%
IC50 (C6 [2]): 12.8 µM

IC50 (U-251 [3]): 117 µM
Compound: CC(C)=CCC[C@@H](C)[C@H]1CC[C@]2(C)[C@@H]1[C@H](O)C[C@@H]1[C@@]3(C)CC[C@H](O)C(C)(C)[C@@H]3[C@@H](O)C[C@]12C
viability at 100 µM (U-251 [1]): 49.4%
IC50 (C6 [2]): 49.7 µM

IC50 (U-251 [3]): 24.3 µM
Compound: O=C(CCc1ccc(O)c(O)c1)OCCc1ccc(O)c(O)c1
viability at 100 µM (U-251 [1]): 55%
IC50 (C6 [2]): 6.16 µM

IC50 (U-251 [3]): 43.1 µM
Compound: C=CC(C)(O)CC/C=C(\CO)C(=O)O[C@H]1[C@H](OC[C@H]2O[C@@H](OC(=O)[C@]34CCC(C)(C)C[C@H]3C3=CC[C@@H]5[C@@]6(C)CC[C@H](O[C@@H]7O[C@H](CO[C@@H]8OC[C@H](O)[C@H](O)[C@H]8O[C@@H]8OC[C@@H](O)[C@H](O)[C@H]8O)[C@@H](O)[C@H](O)[C@H]7O)C(C)(C)[C@@H]6CC[C@@]5(C)[C@]3(C)C[C@H]4O)[C@H](O[C@@H]3O[C@@H](C)[C@H](O[C@@H]4OC[C@@H](O)[C@H](O[C@@H]5OC[C@@H](O)[C@H](O)[C@H]5O)[C@H]4O)[C@@H](O)[C@H]3O)[C@@H](O)[C@@H]2O)O[C@@H](C)[C@H](O)[C@H]1OC(=O)/C(C)=C/CC[C@@](C)(O)C=C (stereo partly drawn)
viability at 100 µM (U-251 [1]): 29.2%
IC50 (C6 [2]): 30.3 µM

IC50 (U-251 [3]): 46.8 µM
Compound: C=C[C@@](C)(O)CC/C=C(\C)C(=O)O[C@H]1[C@H](OC[C@H]2O[C@@H](OC(=O)[C@]34CCC(C)(C)C[C@@H]3C3=CC[C@@H]5[C@@]6(C)CC[C@H](O[C@@H]7O[C@H](CO[C@@H]8OC[C@H](O)[C@H](O)[C@H]8O[C@@H]8OC[C@@H](O)[C@H](O)[C@H]8O)[C@@H](O)[C@H](O)[C@H]7O)C(C)(C)[C@@H]6CC[C@@]5(C)[C@]3(C)C[C@H]4O)[C@H](O[C@@H]3O[C@@H](C)[C@H](O[C@@H]4OC[C@@H](O)[C@H](O[C@@H]5OC[C@@H](O)[C@H](O)[C@H]5O)[C@H]4O)[C@@H](O)[C@H]3O)[C@@H](O)[C@@H]2O)O[C@@H](C)[C@H](O)[C@H]1OC(=O)/C(=C/CC[C@](C)(O)C=C)CO [GLEDITSIA SAPONIN C]
viability at 100 µM (U-251 [1]): 34.9%
IC50 (C6 [2]): 17.6 µM

IC50 (U-251 [3]): 44.5 µM
Compound: C=CC(C)(O)CC/C=C(\CO)C(=O)OC[C@H]1O[C@@H](OC(=O)[C@]23CCC(C)(C)C[C@H]2C2=CC[C@@H]4[C@@]5(C)CC[C@H](O[C@@H]6O[C@H](CO[C@@H]7OC[C@H](O)[C@H](O)[C@H]7O[C@@H]7OC[C@@H](O)[C@H](O)[C@H]7O)[C@@H](O)[C@H](O)[C@H]6O)C(C)(C)[C@@H]5CC[C@@]4(C)[C@]2(C)CC3)[C@H](O[C@@H]2O[C@@H](C)[C@H](O[C@@H]3OC[C@@H](O)[C@H](O[C@@H]4OC[C@@H](O)[C@H](O)[C@H]4O)[C@H]3O)[C@@H](O)[C@H]2O)[C@@H](O)[C@@H]1O (stereo partly drawn)
viability at 100 µM (U-251 [1]): 32.9%
IC50 (C6 [2]): 31.7 µM
